In ChEMBL document CHEMBL1201862, “PubChem BioAssay data set” (2004):
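Test compounds were applied to cells in 96-well plates for 48 hours at 5 doses. GI50 is the concentration that inhibits growth by half.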 Calls of active or inactive are those of the source. No stated cut-off is given here; in the data, active = GI50 up to about 1.1 µM and inactive = higher.

What was measured:
Assay in all cases: DTP human tumour cell line panel, 48 h
KM12 = system: KM12
SF-268 = system: SF-268
HCC 2998 = system: HCC 2998
UO-31 = system: UO-31
BT-549 = system: BT-549
NCI/ADR-RES = system: NCI/ADR-RES
OVCAR-5 = system: OVCAR-5
Malme-3M = system: Malme-3M
A549 = system: A549
M14 = system: M14
SK-MEL-28 = system: SK-MEL-28
SW-620 = system: SW-620
HOP-62 = system: HOP-62
A498 = system: A498
HT-29 = system: HT-29
CCRF-CEM = system: CCRF-CEM
TK-10 = system: TK-10
EKVX = system: EKVX
UACC-62 = system: UACC-62
SK-OV-3 = system: SK-OV-3
IGROV-1 = system: IGROV-1
NCI-H522 = system: NCI-H522
OVCAR-4 = system: OVCAR-4
K562 = system: K562
LOX IMVI = system: LOX IMVI
Hs-578T = system: Hs-578T
COLO 205 = system: COLO 205
SK-MEL-2 = system: SK-MEL-2
MOLT-4 = system: MOLT-4
NCI-H23 = system: NCI-H23
T47D = system: T47D
MDA-MB-231 = system: MDA-MB-231
RXF 393 = system: RXF 393
SF-539 = system: SF-539
DU-145 = system: DU-145
ACHN = system: ACHN
UACC-257 = system: UACC-257
NCI-H226 = system: NCI-H226
SNB-19 = system: SNB-19
HCT-15 = system: HCT-15
MCF7 = system: MCF7
OVCAR-8 = system: OVCAR-8
RPMI-8226 = system: RPMI-8226
CAKI-1 = system: CAKI-1
SN12C = system: SN12C
MDA-MB-435 = system: MDA-MB-435
HL-60 = system: HL-60
NCI-H460 = system: NCI-H460
HCT-116 = system: HCT-116
SR = system: SR
SNB-75 = system: SNB-75
PC-3 = system: PC-3
786-0 = system: 786-0
SF-295 = system: SF-295
SK-MEL-5 = system: SK-MEL-5

## COc1ccc(-c2cc(O)c3cccnc3n2)cc1
KM12
  GI50: 33.7 µM (inactive)
SF-268
  GI50: 40.6 µM (inactive)
HCC 2998
  GI50: 82 µM (inactive)
UO-31
  GI50: 54.6 µM (inactive)
BT-549
  GI50: 77.4 µM (inactive)
NCI/ADR-RES
  GI50: 47.6 µM (inactive)
OVCAR-5
  GI50: > 100 µM (inactive)
Malme-3M
  GI50: 31.9 µM (inactive)
A549
  GI50: 53.7 µM (inactive)
M14
  GI50: 28.3 µM (inactive)
SK-MEL-28
  GI50: 44 µM (inactive)
SW-620
  GI50: 32.2 µM (inactive)
HOP-62
  GI50: 44.3 µM (inactive)
A498
  GI50: 63.5 µM (inactive)
HT-29
  GI50: 15.7 µM (inactive)
CCRF-CEM
  GI50: 28.1 µM (inactive)
TK-10
  GI50: 44.4 µM (inactive)
EKVX
  GI50: > 100 µM (inactive)
UACC-62
  GI50: 23.2 µM (inactive)
SK-OV-3
  GI50: 26.7 µM (inactive)
IGROV-1
  GI50: 26.7 µM (inactive)
NCI-H522
  GI50: 41.1 µM (inactive)
OVCAR-4
  GI50: 67.6 µM (inactive)
K562
  GI50: 25.8 µM (inactive)
LOX IMVI
  GI50: 28.1 µM (inactive)
Hs-578T
  GI50: 24.9 µM (inactive)
COLO 205
  GI50: 19.1 µM (inactive)
SK-MEL-2
  GI50: 83.8 µM (inactive)
MOLT-4
  GI50: 29.3 µM (inactive)
NCI-H23
  GI50: 34.7 µM (inactive)
T47D
  GI50: 51.1 µM (inactive)
MDA-MB-231
  GI50: > 100 µM (inactive)
RXF 393
  GI50: 44.5 µM (inactive)
SF-539
  GI50: 42.4 µM (inactive)
DU-145
  GI50: 64.6 µM (inactive)
ACHN
  GI50: 53.7 µM (inactive)
UACC-257
  GI50: 26.2 µM (inactive)
NCI-H226
  GI50: 45.1 µM (inactive)
SNB-19
  GI50: 78.5 µM (inactive)
HCT-15
  GI50: 34.3 µM
MCF7
  GI50: 19 µM (inactive)
OVCAR-8
  GI50: 57.1 µM (inactive)
RPMI-8226
  GI50: 22.9 µM (inactive)
CAKI-1
  GI50: 17.9 µM (inactive)
SN12C
  GI50: 36.7 µM (inactive)

## Cc1nn(C(=O)Cc2ccccc2)c2c1C(c1ccccc1O)SC(=N)N2 (stereo not given)
KM12
  GI50: > 100 µM (inactive)
SF-268
  GI50: > 100 µM (inactive)
HCC 2998
  GI50: > 100 µM (inactive)
UO-31
  GI50: > 100 µM (inactive)
BT-549
  GI50: > 100 µM (inactive)
Malme-3M
  GI50: > 100 µM (inactive)
MDA-MB-435
  GI50: > 100 µM (inactive)
A549
  GI50: > 100 µM (inactive)
M14
  GI50: > 100 µM (inactive)
HL-60
  GI50: > 100 µM (inactive)
SK-MEL-28
  GI50: > 100 µM (inactive)
SW-620
  GI50: > 100 µM (inactive)
HOP-62
  GI50: > 100 µM (inactive)
A498
  GI50: > 100 µM (inactive)
HT-29
  GI50: > 100 µM (inactive)
CCRF-CEM
  GI50: > 100 µM (inactive)
TK-10
  GI50: > 100 µM (inactive)
EKVX
  GI50: > 100 µM (inactive)
UACC-62
  GI50: > 100 µM (inactive)
SK-OV-3
  GI50: > 100 µM (inactive)
IGROV-1
  GI50: > 100 µM (inactive)
NCI-H522
  GI50: > 100 µM (inactive)
K562
  GI50: > 100 µM (inactive)
NCI-H460
  GI50: > 100 µM (inactive)
LOX IMVI
  GI50: > 100 µM (inactive)
Hs-578T
  GI50: > 100 µM (inactive)
HCT-116
  GI50: > 100 µM (inactive)
COLO 205
  GI50: > 100 µM (inactive)
SR
  GI50: > 100 µM (inactive)
MOLT-4
  GI50: > 100 µM (inactive)
NCI-H23
  GI50: > 100 µM (inactive)
T47D
  GI50: > 100 µM (inactive)
SNB-75
  GI50: > 100 µM (inactive)
PC-3
  GI50: > 100 µM (inactive)
MDA-MB-231
  GI50: > 100 µM (inactive)
SF-539
  GI50: > 100 µM (inactive)
786-0
  GI50: > 100 µM (inactive)
DU-145
  GI50: > 100 µM (inactive)
ACHN
  GI50: > 100 µM (inactive)
UACC-257
  GI50: > 100 µM (inactive)
NCI-H226
  GI50: > 100 µM (inactive)
SNB-19
  GI50: > 100 µM (inactive)
HCT-15
  GI50: > 100 µM
MCF7
  GI50: > 100 µM (inactive)
SF-295
  GI50: > 100 µM (inactive)
OVCAR-8
  GI50: > 100 µM (inactive)
RPMI-8226
  GI50: > 100 µM (inactive)
CAKI-1
  GI50: > 100 µM (inactive)
SN12C
  GI50: > 100 µM (inactive)
SK-MEL-5
  GI50: > 100 µM (inactive)
